How the values were obtained:
Assay in all cases: KINOMEscan competition binding
[1] = target: MAPK8 (human) (UniProt P45983); conditions: compound 10.0 µM
[2] = target: KIT (human) (UniProt P10721); conditions: compound 10.0 µM
[3] = target: BMP2K (human) (UniProt Q9NSY1); conditions: compound 10.0 µM
[4] = target: TLK1 (human) (UniProt Q9UKI8); conditions: compound 10.0 µM
[5] = target: PHKG2 (human) (UniProt P15735); conditions: compound 10.0 µM
[6] = target: AURKB (human) (UniProt Q96GD4); conditions: for kinase still bound, per cent of control: compound 10.0 µM
[7] = target: TGFBR2 (human) (UniProt P37173); conditions: compound 10.0 µM
[8] = target: FLT3 (human) (UniProt P36888); conditions: compound 10.0 µM
[9] = target: GAK (human) (UniProt O14976); conditions: compound 10.0 µM
[10] = target: MYLK3 (human) (UniProt Q32MK0); conditions: compound 10.0 µM
[11] = target: ACVR1 (human) (UniProt Q04771); conditions: compound 10.0 µM
[12] = target: TNIK (human) (UniProt Q9UKE5); conditions: compound 10.0 µM
[13] = target: CLK4 (human) (UniProt Q9HAZ1); conditions: compound 10.0 µM
[14] = target: SRPK2 (human) (UniProt P78362); conditions: compound 10.0 µM
[15] = target: MAPK15 (human) (UniProt Q8TD08); conditions: compound 10.0 µM
[16] = system: KIT (human), P10721 [V559D]; conditions: compound 10.0 µM
[17] = target: DAPK1 (human) (UniProt P53355); conditions: compound 10.0 µM
[18] = target: MKNK1 (human) (UniProt Q9BUB5); conditions: compound 10.0 µM
[19] = target: CIT (human) (UniProt O14578); conditions: compound 10.0 µM
[20] = target: STK24 (human) (UniProt Q9Y6E0); conditions: compound 10.0 µM
[21] = target: TTK (human) (UniProt P33981); conditions: compound 10.0 µM
[22] = target: RIOK2 (human) (UniProt Q9BVS4); conditions: compound 10.0 µM
[23] = target: STK11 (human) (UniProt Q15831); conditions: compound 10.0 µM
[24] = target: CSNK2A2 (human) (UniProt P19784); conditions: compound 10.0 µM
[25] = target: SRPK3 (human) (UniProt Q9UPE1); conditions: compound 10.0 µM
[26] = target: PIM2 (human) (UniProt Q9P1W9); conditions: compound 10.0 µM
[27] = target: RIOK3 (human) (UniProt O14730); conditions: compound 10.0 µM
[28] = target: MKNK2 (human) (UniProt Q9HBH9); conditions: compound 10.0 µM
[29] = target: PIM1 (human) (UniProt P11309); conditions: compound 10.0 µM
[30] = system: KIT (human), P10721 [V559D/V654A]; conditions: compound 10.0 µM
[31] = target: CSNK2A1 (human) (UniProt P68400); conditions: compound 10.0 µM
[32] = target: MAP4K2 (human) (UniProt Q12851); conditions: compound 10.0 µM
[33] = system: EIF2AK4 KD2 (human), Q9P2K8 [S808G]; conditions: compound 10.0 µM
[34] = target: MELK (human) (UniProt Q14680); conditions: compound 10.0 µM
[35] = target: CDK7 (human) (UniProt P50613); conditions: compound 10.0 µM
[36] = target: RPS6KA4 KD2 (human) (UniProt O75676); conditions: compound 10.0 µM
[37] = target: TAOK3 (human) (UniProt Q9H2K8); conditions: compound 10.0 µM
[38] = target: BMPR1B (human) (UniProt O00238); conditions: compound 10.0 µM
[39] = target: DCLK3 (human) (UniProt Q9C098); conditions: compound 10.0 µM
[40] = target: ACVR2A (human) (UniProt P27037); conditions: compound 10.0 µM

Chain of PHKG2 (human) (P15735 whole entry, looked up): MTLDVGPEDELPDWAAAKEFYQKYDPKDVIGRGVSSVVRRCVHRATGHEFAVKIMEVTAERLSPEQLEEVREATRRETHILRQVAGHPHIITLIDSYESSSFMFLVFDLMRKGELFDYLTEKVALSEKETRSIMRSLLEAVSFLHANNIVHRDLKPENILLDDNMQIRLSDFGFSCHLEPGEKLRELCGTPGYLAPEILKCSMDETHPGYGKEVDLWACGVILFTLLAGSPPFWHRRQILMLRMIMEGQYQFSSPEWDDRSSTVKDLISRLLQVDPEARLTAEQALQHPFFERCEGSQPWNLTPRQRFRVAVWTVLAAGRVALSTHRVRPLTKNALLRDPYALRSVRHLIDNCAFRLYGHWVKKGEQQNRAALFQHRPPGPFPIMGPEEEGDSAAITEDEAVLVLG
Chain of TGFBR2 (human) (P37173 whole entry, looked up): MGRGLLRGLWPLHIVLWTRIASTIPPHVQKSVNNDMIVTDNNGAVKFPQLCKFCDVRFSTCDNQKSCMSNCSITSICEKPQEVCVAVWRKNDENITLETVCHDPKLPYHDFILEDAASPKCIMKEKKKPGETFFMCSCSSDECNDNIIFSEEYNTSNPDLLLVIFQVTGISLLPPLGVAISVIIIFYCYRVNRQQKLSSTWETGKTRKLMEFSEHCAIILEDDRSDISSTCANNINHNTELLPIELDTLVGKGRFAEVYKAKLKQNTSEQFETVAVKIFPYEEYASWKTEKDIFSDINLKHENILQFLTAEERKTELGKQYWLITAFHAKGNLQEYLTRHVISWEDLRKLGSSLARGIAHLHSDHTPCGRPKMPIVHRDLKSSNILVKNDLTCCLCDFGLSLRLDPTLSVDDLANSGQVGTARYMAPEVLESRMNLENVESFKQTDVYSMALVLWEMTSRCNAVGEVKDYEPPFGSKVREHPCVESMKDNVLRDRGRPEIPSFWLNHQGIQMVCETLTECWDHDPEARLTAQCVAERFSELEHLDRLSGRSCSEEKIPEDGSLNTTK
Chain of STK11 (human) (Q15831 whole entry, looked up): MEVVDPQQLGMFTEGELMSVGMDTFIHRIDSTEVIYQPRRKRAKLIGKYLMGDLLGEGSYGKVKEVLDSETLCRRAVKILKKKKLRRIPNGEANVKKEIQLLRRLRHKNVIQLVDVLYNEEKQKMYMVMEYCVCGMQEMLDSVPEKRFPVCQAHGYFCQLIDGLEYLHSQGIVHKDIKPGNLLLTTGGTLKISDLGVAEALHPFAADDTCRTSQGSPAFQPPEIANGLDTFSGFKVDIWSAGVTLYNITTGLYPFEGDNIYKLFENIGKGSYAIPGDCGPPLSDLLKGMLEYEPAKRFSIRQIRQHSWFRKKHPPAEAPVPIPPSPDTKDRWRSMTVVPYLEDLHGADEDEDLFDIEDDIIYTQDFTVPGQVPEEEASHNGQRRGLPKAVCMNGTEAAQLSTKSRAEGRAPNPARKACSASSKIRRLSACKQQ
Chain of CSNK2A1 (human) (P68400 whole entry, looked up): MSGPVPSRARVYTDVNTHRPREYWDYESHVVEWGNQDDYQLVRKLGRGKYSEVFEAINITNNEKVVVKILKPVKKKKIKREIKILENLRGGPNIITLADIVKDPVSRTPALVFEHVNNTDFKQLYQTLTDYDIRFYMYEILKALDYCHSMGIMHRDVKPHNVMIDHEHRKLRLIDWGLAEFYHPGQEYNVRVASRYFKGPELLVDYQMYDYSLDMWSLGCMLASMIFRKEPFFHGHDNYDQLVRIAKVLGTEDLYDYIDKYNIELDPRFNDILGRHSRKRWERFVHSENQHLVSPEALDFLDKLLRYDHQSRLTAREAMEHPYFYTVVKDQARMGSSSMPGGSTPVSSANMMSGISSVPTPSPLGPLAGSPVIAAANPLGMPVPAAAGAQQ
Chain of GAK (human) (O14976 whole entry, looked up): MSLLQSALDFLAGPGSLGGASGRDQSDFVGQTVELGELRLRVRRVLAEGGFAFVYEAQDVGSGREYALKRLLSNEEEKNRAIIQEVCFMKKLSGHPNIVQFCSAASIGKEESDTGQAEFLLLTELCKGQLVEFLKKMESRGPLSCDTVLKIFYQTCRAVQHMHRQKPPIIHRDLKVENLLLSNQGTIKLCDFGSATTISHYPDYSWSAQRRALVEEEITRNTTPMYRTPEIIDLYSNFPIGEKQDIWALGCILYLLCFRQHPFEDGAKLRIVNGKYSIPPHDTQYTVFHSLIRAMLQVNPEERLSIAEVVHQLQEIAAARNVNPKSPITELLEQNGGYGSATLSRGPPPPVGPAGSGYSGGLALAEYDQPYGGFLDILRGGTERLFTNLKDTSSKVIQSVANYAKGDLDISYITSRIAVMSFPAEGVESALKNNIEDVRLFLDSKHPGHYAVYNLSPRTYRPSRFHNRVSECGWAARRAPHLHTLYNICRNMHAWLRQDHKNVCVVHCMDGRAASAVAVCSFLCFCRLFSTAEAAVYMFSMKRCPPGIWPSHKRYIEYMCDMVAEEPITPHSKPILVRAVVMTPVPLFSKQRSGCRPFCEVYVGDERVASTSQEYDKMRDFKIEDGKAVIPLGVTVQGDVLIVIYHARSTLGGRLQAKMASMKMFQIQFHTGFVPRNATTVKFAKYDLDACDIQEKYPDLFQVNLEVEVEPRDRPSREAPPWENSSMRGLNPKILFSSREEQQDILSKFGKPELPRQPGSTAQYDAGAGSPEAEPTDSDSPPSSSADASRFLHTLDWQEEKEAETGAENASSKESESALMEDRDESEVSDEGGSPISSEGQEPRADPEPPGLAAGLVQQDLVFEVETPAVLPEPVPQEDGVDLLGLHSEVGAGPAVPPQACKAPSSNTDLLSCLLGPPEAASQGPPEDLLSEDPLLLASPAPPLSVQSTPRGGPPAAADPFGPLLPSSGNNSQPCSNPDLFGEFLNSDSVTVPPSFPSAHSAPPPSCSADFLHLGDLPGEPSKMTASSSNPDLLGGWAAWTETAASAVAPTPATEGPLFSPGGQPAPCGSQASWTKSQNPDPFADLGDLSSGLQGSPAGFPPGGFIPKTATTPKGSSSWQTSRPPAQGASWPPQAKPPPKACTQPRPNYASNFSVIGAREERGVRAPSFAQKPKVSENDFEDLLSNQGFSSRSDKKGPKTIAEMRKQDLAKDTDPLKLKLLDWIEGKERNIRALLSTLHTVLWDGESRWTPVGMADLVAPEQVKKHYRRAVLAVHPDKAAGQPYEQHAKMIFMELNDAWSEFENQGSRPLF
Chain of DAPK1 (human) (P53355 whole entry, looked up): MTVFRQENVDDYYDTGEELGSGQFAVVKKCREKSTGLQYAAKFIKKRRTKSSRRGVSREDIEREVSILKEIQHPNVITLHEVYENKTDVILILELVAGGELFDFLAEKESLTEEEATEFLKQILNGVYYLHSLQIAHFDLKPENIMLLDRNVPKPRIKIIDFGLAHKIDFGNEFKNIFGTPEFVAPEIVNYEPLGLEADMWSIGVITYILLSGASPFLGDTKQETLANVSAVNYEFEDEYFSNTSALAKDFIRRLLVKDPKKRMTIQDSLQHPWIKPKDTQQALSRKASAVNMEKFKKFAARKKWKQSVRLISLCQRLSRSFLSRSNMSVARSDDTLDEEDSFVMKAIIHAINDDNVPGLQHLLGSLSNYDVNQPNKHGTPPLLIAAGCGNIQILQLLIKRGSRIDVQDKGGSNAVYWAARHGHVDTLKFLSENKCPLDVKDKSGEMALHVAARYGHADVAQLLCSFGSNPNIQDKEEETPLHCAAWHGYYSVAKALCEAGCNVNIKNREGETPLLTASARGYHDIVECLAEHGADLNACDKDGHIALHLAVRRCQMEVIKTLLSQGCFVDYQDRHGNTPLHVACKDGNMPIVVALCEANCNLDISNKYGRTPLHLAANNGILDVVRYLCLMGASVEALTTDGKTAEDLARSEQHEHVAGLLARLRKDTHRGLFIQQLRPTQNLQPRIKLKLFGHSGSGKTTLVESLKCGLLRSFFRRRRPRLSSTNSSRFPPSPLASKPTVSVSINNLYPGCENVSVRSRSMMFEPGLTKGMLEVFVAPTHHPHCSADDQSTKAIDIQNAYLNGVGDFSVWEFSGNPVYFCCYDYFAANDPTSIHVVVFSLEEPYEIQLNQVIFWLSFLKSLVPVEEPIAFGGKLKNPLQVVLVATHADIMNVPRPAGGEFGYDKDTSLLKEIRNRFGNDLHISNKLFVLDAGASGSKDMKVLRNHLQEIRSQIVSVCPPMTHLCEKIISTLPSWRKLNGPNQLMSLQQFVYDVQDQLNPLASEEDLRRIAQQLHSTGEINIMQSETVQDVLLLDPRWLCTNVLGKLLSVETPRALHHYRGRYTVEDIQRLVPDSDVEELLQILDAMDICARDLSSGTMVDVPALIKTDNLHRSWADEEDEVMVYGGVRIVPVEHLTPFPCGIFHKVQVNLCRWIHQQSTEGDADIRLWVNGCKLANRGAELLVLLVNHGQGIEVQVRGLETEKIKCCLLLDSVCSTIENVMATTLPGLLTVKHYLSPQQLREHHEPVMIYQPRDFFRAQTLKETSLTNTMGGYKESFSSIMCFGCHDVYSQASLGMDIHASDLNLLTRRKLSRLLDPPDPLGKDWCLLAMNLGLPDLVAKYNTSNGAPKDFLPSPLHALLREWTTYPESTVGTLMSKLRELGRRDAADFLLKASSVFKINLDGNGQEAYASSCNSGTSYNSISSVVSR
Chain of PIM2 (human) (Q9P1W9 whole entry, looked up): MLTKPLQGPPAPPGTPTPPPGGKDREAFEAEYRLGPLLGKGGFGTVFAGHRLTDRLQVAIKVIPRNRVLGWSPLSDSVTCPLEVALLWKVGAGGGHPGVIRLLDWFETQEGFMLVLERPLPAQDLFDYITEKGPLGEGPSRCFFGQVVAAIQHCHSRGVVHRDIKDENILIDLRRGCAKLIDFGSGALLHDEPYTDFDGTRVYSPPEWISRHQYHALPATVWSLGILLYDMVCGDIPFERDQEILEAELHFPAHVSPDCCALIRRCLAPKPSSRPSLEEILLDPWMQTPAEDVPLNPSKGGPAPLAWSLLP

Compound O=C1NC(=S)S/C1=C\c1ccc(-c2cncc3ccccc23)o1 has a kinase still bound, per cent of control [1] of 7%, a kinase still bound, per cent of control [2] of 21% and a kinase still bound, per cent of control [3] of 0.4%. The kinase still bound, per cent of control [4] was 5.8%, the kinase still bound, per cent of control [5] was 8.1% and the kinase still bound, per cent of control [6] was 27%. It also gave a kinase still bound, per cent of control [7] of 5.2%, a kinase still bound, per cent of control [8] of 16% and a kinase still bound, per cent of control [9] of 1.3%. It also gave a kinase still bound, per cent of control [10] of 8.7%, a kinase still bound, per cent of control [11] of 14% and a kinase still bound, per cent of control [12] of 11%. It also gave a kinase still bound, per cent of control [13] of 6.1%, a kinase still bound, per cent of control [14] of 32% and a kinase still bound, per cent of control [15] of 9%. It also gave a kinase still bound, per cent of control [16] of 26%, a kinase still bound, per cent of control [17] of 9.6% and a kinase still bound, per cent of control [18] of 33%. It also gave a kinase still bound, per cent of control [19] of 28%, a kinase still bound, per cent of control [20] of 12% and a kinase still bound, per cent of control [21] of 17%. The kinase still bound, per cent of control [22] was 3.4%, the kinase still bound, per cent of control [23] was 17% and the kinase still bound, per cent of control [24] was 5.6%. For the same compound, the kinase still bound, per cent of control [25] was 14%, the kinase still bound, per cent of control [26] was 0.55% and the kinase still bound, per cent of control [27] was 5.5%. It also gave a kinase still bound, per cent of control [28] of 23%, a kinase still bound, per cent of control [29] of 2.7% and a kinase still bound, per cent of control [30] of 23%. For the same compound, the kinase still bound, per cent of control [31] was 3.2%.

With Nc1cccc(-c2cc(/C=C3\SC(=O)NC3=O)c[nH]c2=O)c1 the kinase still bound, per cent of control [3] was 1%, the kinase still bound, per cent of control [5] was 11% and the kinase still bound, per cent of control [6] was 8%. The kinase still bound, per cent of control [7] was 26%, the kinase still bound, per cent of control [9] was 9.2% and the kinase still bound, per cent of control [10] was 2%. For the same compound, the kinase still bound, per cent of control [32] was 30%, the kinase still bound, per cent of control [13] was 16% and the kinase still bound, per cent of control [33] was 0.6%. The kinase still bound, per cent of control [14] was 26%, the kinase still bound, per cent of control [15] was 0.55% and the kinase still bound, per cent of control [34] was 30%. For the same compound, the kinase still bound, per cent of control [17] was 2.2%, the kinase still bound, per cent of control [23] was 19% and the kinase still bound, per cent of control [24] was 9.6%. The kinase still bound, per cent of control [25] was 13%, the kinase still bound, per cent of control [26] was 1% and the kinase still bound, per cent of control [35] was 8.8%. For the same compound, the kinase still bound, per cent of control [36] was 0.1%, the kinase still bound, per cent of control [37] was 24% and the kinase still bound, per cent of control [27] was 8.6%. For the same compound, the kinase still bound, per cent of control [38] was 2.2%, the kinase still bound, per cent of control [29] was 4.8% and the kinase still bound, per cent of control [31] was 17%.

Compound N=C1NC(=O)/C(=C/c2ccc(-c3cncc4ccccc34)o2)S1 has a kinase still bound, per cent of control [1] of 20%, a kinase still bound, per cent of control [2] of 10% and a kinase still bound, per cent of control [3] of 0%. It also gave a kinase still bound, per cent of control [4] of 28%, a kinase still bound, per cent of control [5] of 10% and a Kd [6] of 210 nM. The kinase still bound, per cent of control [6] was 0.8%, the kinase still bound, per cent of control [7] was 0.85% and the kinase still bound, per cent of control [8] was 10%. It also gave a kinase still bound, per cent of control [9] of 0.9%, a kinase still bound, per cent of control [10] of 0.55% and a kinase still bound, per cent of control [32] of 6.9%. For the same compound, the kinase still bound, per cent of control [11] was 0.5%, the kinase still bound, per cent of control [12] was 8% and the kinase still bound, per cent of control [13] was 2.8%. For the same compound, the kinase still bound, per cent of control [33] was 0.7%, the kinase still bound, per cent of control [14] was 9.9% and the kinase still bound, per cent of control [15] was 10%. The kinase still bound, per cent of control [39] was 30%, the kinase still bound, per cent of control [16] was 7.2% and the kinase still bound, per cent of control [34] was 28%. It also gave a kinase still bound, per cent of control [17] of 5.9%, a kinase still bound, per cent of control [18] of 0.8% and a kinase still bound, per cent of control [19] of 19%. For the same compound, the kinase still bound, per cent of control [20] was 16%, the kinase still bound, per cent of control [21] was 2.4% and the kinase still bound, per cent of control [23] was 6%. The kinase still bound, per cent of control [24] was 5.1%, the kinase still bound, per cent of control [25] was 7.2% and the kinase still bound, per cent of control [26] was 0.9%. The kinase still bound, per cent of control [35] was 14%, the kinase still bound, per cent of control [40] was 8.6% and the kinase still bound, per cent of control [36] was 27%. For the same compound, the kinase still bound, per cent of control [37] was 26%, the kinase still bound, per cent of control [27] was 2.2% and the kinase still bound, per cent of control [29] was 0.7%. For the same compound, the kinase still bound, per cent of control [30] was 23% and the kinase still bound, per cent of control [31] was 6.4%.

— the kinase profiling compilation of Christmann-Franck et al. (2016)
